We go through 14 compounds from US12247013B2, “Indane derivatives for use in the treatment of bacterial infection” (priority 2018, dated 2025).

Broadly, the Ki is a dissociation constant, usually derived from enzyme kinetics or from competition with a known ligand.

Assay [1] concerns the target purified LasB protein from P. aeruginosa (Pseudomonas aeruginosa (strain ATCC 15692 / DSM 22644 / CIP 104116 / JCM 14847 / LMG 12228 / 1C / PRS 101 / PAO1), UniProt P14756). Put plainly: Fluorometric assay to determine Ki (Abz-Ala-Gly-Leu-Ala-p-Nitro-Benzyl-Amide substrate). The note with it: 250 μM substrate, Ki calculated from IC50. Type of assay: biochemical. The method, then:
Experiments were therefore conducted (1) to measure the potency of inhibition of compounds of the invention against purified Pseudomonas aeruginosa LasB enzyme and also experiments were conducted (2) to measure the ability of compounds of the invention to inhibit LasB-catalysed elastin degradation. The first assay uses a commercial fluorescent synthetic peptide and purified LasB enzyme. The LasB hydrolysis kinetics are measured allowing the determination of the IC50 and Ki of the inhibitors; the second is a more physiological assay using dialysed Pseudomonas aeruginosa supernatant as source of enzyme, plus its natural substrate Elastin. It is an “end point assay” that determines the percentage of LasB inhibition by each compound for one particular time point and inhibitor concentration. Technical details are described below:
Fluorometric Assay to Determine Ki
This assay uses commercially available substrate (Abz-Ala-Gly-Leu-Ala-p-Nitro-Benzyl-Amide (Ex: 340 nm, Em: 415 nm) from Peptide International) and purified LasB protein from P. aeruginosa (provided by Merck or Charles River Laboratories). It is performed to determine LasB elastase activity and assess compound inhibition in 96-well plate format. All compounds of Formula (I) were assessed using the method described below.
Method: 10 to 140 ng/ml purified LasB is incubated with 250 μM Abz-Ala-Gly-Leu-Ala-p-Nitro-Benzyl-Amide in 50 mM Tris-HCl pH 7.4, 2.5 mM CaCl2), 0.01% of Triton X100 at 37° C. LasB activity (corresponding to fluorescence emission induced by substrate hydrolysis) is measured over 30 min at 37° C. with a fluorescence plate reader such as the Perkin Elmer Envision or similar. Different range of inhibitor concentrations are routinely assessed depending of inhibitor potency from 0.0016 to 200 μM (2-fold dilutions series) in order to determine IC50.
The equation used to calculate the Ki from IC50 is: Ki=IC50/(1+([S]/Km)) where [S]=250 μM and Km=214 μM.

The subject of assay [2] is Pseudomonas aeruginosa (PAO1). Put plainly: Mouse model of Pseudomonas aeruginosa lung infection. Type of assay: in vivo. The note with it: mice infected with wild-type PAO1, intravenous 10 and 30 mg/kg at 1 h and 2 h post infection. The method, then:
Mice were dosed by intranasal inoculation of PA (PAO1), then sacrified after 24 hours. The extent of infection in the lung was quantified by bacterial load (CFU determination, colony forming units) and the levels of proinflammatory IL-1β. Statistical analysis on both readouts were performed by ANOVA with a Dunnett post-test.
Compounds were administered intravenously in a two-dose regimen (1 hour and 2 hours post infection) at two different doses (10 and 30 mg/kg).

purified LasB protein from P. aeruginosa, sequence (P14756 198-498): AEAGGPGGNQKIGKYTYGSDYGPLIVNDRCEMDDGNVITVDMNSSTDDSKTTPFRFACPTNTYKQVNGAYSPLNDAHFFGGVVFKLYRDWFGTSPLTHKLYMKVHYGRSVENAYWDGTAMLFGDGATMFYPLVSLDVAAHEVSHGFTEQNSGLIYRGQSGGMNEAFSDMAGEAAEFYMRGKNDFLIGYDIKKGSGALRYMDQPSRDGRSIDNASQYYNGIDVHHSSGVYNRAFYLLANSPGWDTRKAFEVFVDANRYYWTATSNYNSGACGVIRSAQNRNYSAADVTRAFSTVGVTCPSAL

As for `COc1cc2sc(CNC(=O)C3(CC(=O)O)Cc4ccccc4C3)nc2cc1OCCN1CCOCC1` [Example 9, 2-[2-[[6-methoxy-5-(2-morpholinoethoxy)-1,3-benzothiazol-2-yl]methylcarbamoyl]indan-2-yl]acetic Acid], the Ki in assay [1] is < 50 nM.
Take `COc1cc2sc(CNC(=O)C3(CC(=O)O)Cc4cc(F)c(F)cc4C3)nc2cc1OCCN1CCOCC1` [Example 10, 2-[5,6-difluoro-2-[[6-methoxy-5-(2-morpholinoethoxy)-1,3-benzothiazol-2-yl]methylcarbamoyl]indan-2-yl]acetic Acid]: the Ki in assay [1] is < 50 nM.
On the same count and under the same terms, next, `COc1cc2sc(CNC(=O)C3(CC(=O)O)Cc4cc(F)c(F)cc4C3)nc2cc1OCC1CCN(C)CC1` [Example 11, 2-[5,6-difluoro-2-[[6-methoxy-5-[(1-methyl-4-piperidyl)methoxy]-1,3-benzothiazol-2-yl]methylcarbamoyl]indan-2-yl]acetic Acid]: < 50 nM; `COc1cc2sc(CNC(=O)C3(CC(=O)[O-])Cc4ccccc4C3)nc2cc1OCCC[N+]1(C)CCOCC1` [Example 16, 2-[2-[[6-methoxy-5-[3-(4-methylmorpholin-4-ium-4-yl)propoxy]-1,3-benzothiazol-2-yl]methylcarbamoyl]indan-2-yl]acetate]: < 50 nM.
Still for that read-out and setting: next, `CC[N+](C)(CC)CCCOc1cc2nc(CNC(=O)C3(CC(=O)[O-])Cc4ccccc4C3)sc2cc1OC` [Example 18, 2-[2-[[5-[3-[diethyl(methyl)ammonio]propoxy]-6-methoxy-1,3-benzothiazol-2-yl]methylcarbamoyl]indan-2-yl]acetate]: < 50 nM; `COc1cc2sc(CNC(=O)C3(CC(=O)[O-])Cc4cc(F)c(F)cc4C3)nc2cc1OCCC[N+]1(C)CCCC1` [Example 19, 2-[5,6-difluoro-2-[[6-methoxy-5-[3-(1-methylpyrrolidin-1-ium-1-yl)propoxy]-1,3-benzothiazol-2-yl]methylcarbamoyl]indan-2-yl]acetate]: < 50 nM.
As to `COc1cc2sc(CNC(=O)C3(CC(=O)[O-])Cc4ccccc4C3)nc2cc1OCCC[N+](C)(C)CCO` [Example 20, 2-[2-[[5-[3-[2-hydroxyethyl(dimethyl)ammonio]propoxy]-6-methoxy-1,3-benzothiazol-2-yl]methylcarbamoyl]indan-2-yl]acetate], the inhibition constant Ki in assay [1] is < 50 nM.
Still for that read-out and setting: next, `COc1cc2sc(CNC(=O)C3(CC(=O)[O-])Cc4cc(F)c(F)cc4C3)nc2cc1OCCC[N+](C)(C)CCO` [Example 21, 2-[5,6-difluoro-2-[[5-[3-[2-hydroxyethyl(dimethyl)ammonio]propoxy]-6-methoxy-1,3-benzothiazol-2-yl]methylcarbamoyl]indan-2-yl]acetate]: < 50 nM; `COc1cc2sc(CNC(=O)C3(CC(=O)[O-])Cc4ccccc4C3)nc2cc1OCCC[N+](C)(CCO)CCO` [Example 22, 2-[2-[[5-[3-[bis(2-hydroxyethyl)-methyl-ammonio]propoxy]-6-methoxy-1,3-benzothiazol-2-yl]methylcarbamoyl]indan-2-yl]acetate]: < 50 nM.
For the compound `COc1cc2sc(CNC(=O)C3(CC(=O)[O-])Cc4cc(F)c(F)cc4C3)nc2cc1OCCC[N+](C)(CCO)CCO` [Example 23, 2-[2-[[5-[3-[bis(2-hydroxyethyl)-methyl-ammonio]propoxy]-6-methoxy-1,3-benzothiazol-2-yl]methylcarbamoyl]-5,6-difluoro-indan-2-yl]acetate], the “production and activation of IL-1β in the lung” value in assay [2] (24 hours post infection (FIG. 2)) is “inhibited the production and activation of IL-1β in mice infected by wild-type PA (PA01) at a similar level than the lasB deleted mutant”. The “extent of infection in the lung (CFU levels)” value in assay [2] (24 hours post infection (FIG. 3)) is reported as “reduced the extent of infection in the lung to the level of the LasB deleted mutant”. The Ki in assay [1] was < 50 nM.
Take `COc1cc2sc(CNC(=O)C3(CC(=O)O)Cc4ccccc4C3)nc2cc1C(=O)N1CCN(C)CC1` [Example 33, 2-[2-[[6-methoxy-5-(4-methylpiperazine-1-carbonyl)-1,3-benzothiazol-2-yl]methylcarbamoyl]indan-2-yl]acetic Acid]: the Ki in assay [1] is < 50 nM.
Still for that read-out and setting: the result for `COc1cc2sc(CNC(=O)C3(CC(=O)O)Cc4ccccc4C3)nc2cc1C(=O)N1CC(N(C)C)C1` [Example 36, 2-[2-[[5-[3-(dimethylamino)azetidine-1-carbonyl]-6-methoxy-1,3-benzothiazol-2-yl]methylcarbamoyl]indan-2-yl]acetic Acid] reads < 50 nM; that for `COc1cc2sc(CNC(=O)C3(CC(=O)O)Cc4cc(F)c(F)cc4C3)nc2cc1C(=O)N1CC(N(C)C)C1` [Example 37, 2-[2-[[5-[3-(dimethylamino)azetidine-1-carbonyl]-6-methoxy-1,3-benzothiazol-2-yl]methylcarbamoyl]-5,6-difluoro-indan-2-yl]acetic Acid], < 50 nM; that for `COc1cc2sc(CNC(=O)C3(CC(=O)[O-])Cc4cc(F)c(F)cc4C3)nc2cc1OCC1CC[N+](C)(C)CC1` [Example 44, 2-[2-[[5-[(1,1-dimethylpiperidin-1-ium-4-yl)methoxy]-6-methoxy-1,3-benzothiazol-2-yl]methylcarbamoyl]-5,6-difluoro-indan-2-yl]acetate], < 50 nM.
